Results reported in US20160360749A1, “METHOD FOR […] […]” (ExxonMobil Research and Engineering Company, priority 2015, published 2016).

How the values were obtained:
[1] = test system: Desulfovibrio vulgaris Hildenborough (DvH); test: DvH metabolism by ion chromatography (lactate, sulfate, acetate); assay type: cell-based; settings: 0.5-2 mM indole, FIG. 2B, 2 replicates
Protocol: (§1) Steel coupons were incubated in cultures of DvH for three days with and without indole and then the coupons were measured to determine the amount of metal loss due to corrosion. […] The error bars represent the standard error of the mean from 2 replicates.
The wild-type D. vulgaris Hildenborough (DvH) was obtained from Judy Wall at the University of Missouri and Adam Deutchbauer at the Lawrence Berkeley National Laboratory. Freezer stocks of DvH containing 10% glycerol were used to inoculate overnight cultures. The growth media (L30S30B2) contained 30 mM lactate, 30 mM sulfate, 8 mM MgCl2, 20 mM NH4Cl, 2.2 mM phosphate buffer, 0.6 mM CaCl2, 24 mM NaCO3, 0.02% resazurin, 0.06 mM FeCl2, trace elements and Thauer's vitamins (Lee et al., “Indole as an intercellular signal in microbial communities,” 2010, pp. 426-444) with pH adjusted to 7.2. […]
Ion Chromatography (IC)—One milliliter of cultures were extracted at the beginning and the end of the experiment, centrifuged at 14000 rpm for 2 min, filtered through 0.2 μm cellulose acetate filters, and kept at −20° C. until further IC analysis. Anions of lactate, sulfate, and acetate were quantified using suppressed conductivity on a Dionex ICS-5000 Reagent-Free HPIC System with a Dionex IonPac AS 11-HC column (0.4 mm×250 mm, Thermo Fisher, Massachusetts, USA). […]

[2] = Carbon steel coupon weight loss in a sterile environment without DvH inoculation; settings: 2 mM indole, carbon steel coupons, FIG. 1
Protocol: (§2) Carbon steel coupons were incubated in the presence of 0 and 2 mM indole, with and without an inoculum of DvH.
(§3) The metal loss of the carbon steel coupons was measured. FIG. 1 is a bar graph comparing corrosion as measured in coupon weight loss under the compound (indole) and SRB (DvH) tested.
(§4) Rectangular X52 carbon steel coupons were polished on 600 grit sand paper and weighed prior to the experiment. 60 ml of L30S30B2 media containing 0-2 mM indole was anaerobically transferred into each autoclaved serum bottle with 1 coupon hung on plastic fishing wire. 1 ml of a DvH overnight culture was inoculated into each bottle and incubated at 30° C. with gentle shaking for 3 days. After the incubation the coupons were descaled with Clarke's solution (tin choloride and antimony oxide in concentrated hydrochloric acid), rinsed with water, dried under nitrogen gas, and weighed again. The metal weight loss after exposure to DvH was then calculated.

[3] = test system: Desulfovibrio vulgaris Hildenborough (DvH); test: Carbon steel coupon weight loss analysis in DvH cultures; assay type: cell-based
Protocol: as §2, §3, §1
The wild-type D. vulgaris Hildenborough (DvH) was obtained from Judy Wall at the University of Missouri and Adam Deutchbauer at the Lawrence Berkeley National Laboratory. Freezer stocks of DvH containing 10% glycerol were used to inoculate overnight cultures. The growth media (L30S30B2) contained 30 mM lactate, 30 mM sulfate, 8 mM MgCl2, 20 mM NH4Cl, 2.2 mM phosphate buffer, 0.6 mM CaCl2, 24 mM NaCO3, 0.02% resazurin, 0.06 mM FeCl2, trace elements and Thauer's vitamins (Lee et al., “Indole as an intercellular signal in microbial communities,” 2010, pp. 426-444) with pH adjusted to 7.2. Media was bubbled with 15% CO2 balance N2 and sodium dithionite was added immediately before inoculation to a final concentration of […]. Media containing 0-4 mM indole was made by anaerobically mixing varied volumes of L30S30B2 and L30S30B2 supplemented with 4 mM indole (Sigma-Aldrich, 13408).
as §4

c1ccc2[nH]ccc2c1 [indole]
metabolism of DvH (consumption of lactate and sulfate, production of acetate) [1]: not significantly affected | reduction in coupon weight loss in sterile environment [2]: not replicated | reduction of corrosion (coupon weight loss) compared to the no indole treatment ([3]; 2 mM indole, carbon steel coupons, in the presence of DvH (MIC), FIG. 1): 2 fold | metal loss of coupons incubated in the absence of indole relative to coupons in the presence of indole ([3]; 0.5-2 mM indole, steel coupons in DvH cultures, three days, FIG. 2A): ~2 fold | corrosion of metal coupons ([3]; 0.5 to 2 mM indole, DvH cultures, three days): little to no corrosion
